Type in all cases: cell-based, Mycobacterium tuberculosis
Assay [1] has as its system mc^26230_R1.
Assay [2] deals with mc^26230_R3.
Assay [3] deals with mc^26230 overexpressing InhA (pMV261_inhA). The experiment in a line: microbe, parasite or virus in culture. Particulars: for fold change between the strain harboring the empty plasmid pMV261 and the strain overexpressing InhA: MIC pMV261_inhA / MIC pMV261; for MIC: Mycobacterium tuberculosis, read-out: MIC, pMV261_inhA.

The results in this text go back to paper PMC12400508 (RSC Advances, 2025).

Converted amounts (≈) assume the structure as drawn.

On to `Cc1ccccc1/C=C1\SC(NNC(=O)c2ccncc2)=NC1=O` [9d], for which, in assay [1], the “MIC, mc^26230_R1” value worked out at 50 µg/mL (≈ 148 µM) and the “fold increase of MIC in the KatG mutated strains versus parental strain” value (shortened to “fold increase of MIC”) was 32 fold. Further, the “MIC, mc^26230_R3” value in assay [2] came out at 50 µg/mL (≈ 148 µM). For the same compound, in assay [3], the “fold change between the strain harboring the empty plasmid pMV261 and the strain overexpressing InhA” value came to 16 fold; the MIC is 50 µg/mL (≈ 148 µM).

As for `O=C1N=C(NNC(=O)c2ccncc2)S/C1=C\c1ccc(F)cc1` [9j], in assay [1], the “MIC, mc^26230_R1” value is 100 µg/mL (≈ 292 µM) and the “fold increase of MIC” value came out at 8 fold. Further, the “MIC, mc^26230_R3” value in assay [2] is 100 µg/mL (≈ 292 µM). Also, in assay [3], the “fold change between the strain harboring the empty plasmid pMV261 and the strain overexpressing InhA” value was determined as 8 fold; the MIC worked out at 100 µg/mL (≈ 292 µM).

For the compound `O=C1N=C(NNC(=O)c2ccncc2)S/C1=C\c1ccccc1F` [9l], in assay [1], the “MIC, mc^26230_R1” value was found to be 100 µg/mL (≈ 292 µM) and the “fold increase of MIC” value is given as 4 fold. Besides, the “MIC, mc^26230_R3” value in assay [2] was 100 µg/mL (≈ 292 µM).

`O=C1N=C(NNC(=O)c2ccncc2)S/C1=C\c1ccc(Cl)cc1` [9n]: in assay [1], the “MIC, mc^26230_R1” value came out at 100 µg/mL (≈ 279 µM) and the “fold increase of MIC” value came to 8 fold. Also, the “MIC, mc^26230_R3” value in assay [2] was determined as 100 µg/mL (≈ 279 µM). Besides, in assay [3], the “fold change between the strain harboring the empty plasmid pMV261 and the strain overexpressing InhA” value stood at 4 fold; the MIC worked out at 100 µg/mL (≈ 279 µM).

On to `O=C1N=C(NNC(=O)c2ccncc2)S/C1=C\c1ccccc1Cl` [9p], for which, in assay [1], the “MIC, mc^26230_R1” value turned out to be 100 µg/mL (≈ 279 µM) and the “fold increase of MIC” value is recorded as 4 fold. The “MIC, mc^26230_R3” value in assay [2] was 100 µg/mL (≈ 279 µM).

In the case of `NNC(=O)c1ccncc1` [INH, isoniazid, reference compound], the “MIC, mc^26230_R1” value in assay [1] is >10 µg/mL. Also, the “MIC, mc^26230_R3” value in assay [2] is >10 µg/mL. Also, in assay [3], the “fold change between the strain harboring the empty plasmid pMV261 and the strain overexpressing InhA” value was 16 fold; the MIC turned out to be 1.25 µg/mL (≈ 9.11 µM).

Regarding `CO[C@H]1/C=C/O[C@@]2(C)Oc3c(C)c(O)c4c(O)c(c(/C=N/N5CCN(C)CC5)c(O)c4c3C2=O)NC(=O)/C(C)=C\C=C\[C@H](C)[C@H](O)[C@@H](C)[C@@H](O)[C@@H](C)[C@H](OC(C)=O)[C@@H]1C` [RIF, reference compound], in assay [3], the “MIC, pMV261_inhA” value was “unaffected”; the “fold change between the strain harboring the empty plasmid pMV261 and the strain overexpressing InhA” value amounted to 1 fold; the MIC was determined as 0.039 µg/mL (≈ 0.0474 µM).
